{"source": "paper PMC9189904", "about": "“Functional Properties of Two Distinct PTH1R Mutants Associated With Either Skeletal Defects or Pseudohypoparathyroidism” (JBMR Plus, 2022)", "format_in_all_cases": "cell-based", "key": {"PTH1R‐R186H [1]": {"molecular_target": "T1, PTH1R‐R186H (Homo sapiens, UniProt Q03431, R186H)", "T1 construct": "expressed in transfected cells; plasmid TG-907 made by VectorBuilder", "T1 sequence (Q03431 27-593 E90Y/S91D/E92V/E93P/K95Y/E96A/R186H)": "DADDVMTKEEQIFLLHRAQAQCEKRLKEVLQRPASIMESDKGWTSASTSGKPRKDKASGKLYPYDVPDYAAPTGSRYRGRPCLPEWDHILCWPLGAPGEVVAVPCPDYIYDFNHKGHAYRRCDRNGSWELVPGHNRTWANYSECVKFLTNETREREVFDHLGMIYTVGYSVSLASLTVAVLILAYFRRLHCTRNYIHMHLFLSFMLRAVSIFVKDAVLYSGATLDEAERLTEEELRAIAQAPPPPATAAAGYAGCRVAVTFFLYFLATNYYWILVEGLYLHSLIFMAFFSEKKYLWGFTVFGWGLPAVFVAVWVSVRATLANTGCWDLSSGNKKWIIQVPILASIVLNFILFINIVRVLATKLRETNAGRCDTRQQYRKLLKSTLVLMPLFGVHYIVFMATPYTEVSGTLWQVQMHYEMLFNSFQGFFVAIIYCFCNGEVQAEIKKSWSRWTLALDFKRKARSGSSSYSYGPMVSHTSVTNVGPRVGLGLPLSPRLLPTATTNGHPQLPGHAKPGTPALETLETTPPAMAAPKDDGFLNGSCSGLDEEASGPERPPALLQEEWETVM", "assay": "Fluorescence microscopy of PTH(1-34)TMR-PTH1R complexes in GS-22a cells, ImageJ analysis", "conditions": "ligand 30nM, means of six cells, representative experiment", "experimental": "(§1) PTH analog binding to WT and mutant PTH1Rs was assessed by fluorescence microscopy in transiently transfected GS‐22A cells as described.^( [30], [31] ^) Briefly, the cells were transfected in six‐well plates, reseeded at 24 hours onto coverslips in six‐well plates, and at 48 hours posttransfection processed for analysis. The plates were placed on ice and the cells on coverslips were rinsed with cold HB. Then 1.0 mL of HB was then added to each well, followed by Alexafluor‐488‐labeled mouse monoclonal anti‐HA immunoglobulin G (IgG) antibody (BioLegend; Cat. No. 901509) at a concentration of 1 μg/mL, and the plate was incubated at 4°C for 1 hour. […] The plate was then shifted to room temperature and incubations continued for 30 minutes. The mixtures were then removed, the cells were rinsed twice with HB, fixed for 5 minutes in 3.7% paraformaldehyde buffer (Boston BioProducts, Inc., Ashland, MA, USA; Cat. No. BM‐158), rinsed with HB, then mounted on a glass microscope slide in Vectashield media containing 4′,6‐diamidino‐2‐phenylindole (DAPI) (Vector Laboratories, Burlingame, CA, USA; Cat. No. H1500) and imaged at magnification ×400 using a Nikon Eclipse fluorescence microscope equipped with a CCD camera configured with SPOT imaging software (Nikon, Tokyo, Japan). Regions of interest were digitally expanded 5× or 7× in PowerPoint software (Microsoft Corp., Redmond, WA, USA).\n(§2) Fluorescent microscopy images were analyzed using ImageJ software, ver. […] The freehand tool was used to define the area analyzed for each cell, and the Measure>Analyze Particle tool was used to obtain the number of particles, the total area and the mean grayscale (intensity) of each particle for each cell. For each cell, the number of particles was divided by the total area to obtain the Particles/Total Area."}, "PTH1R‐V204E [2]": {"molecular_target": "T2, PTH1R‐V204E (Homo sapiens, UniProt Q03431, V204E)", "T2 construct": "expressed in transfected cells; plasmid TG-928 made by VectorBuilder", "T2 sequence (Q03431 27-593 E90Y/S91D/E92V/E93P/K95Y/E96A/V204E)": "T1 sequence (Q03431 27-593 E90Y/S91D/E92V/E93P/K95Y/E96A/R186H) with H160R, V178E", "assay": "Fluorescence microscopy of PTH(1-34)TMR-PTH1R complexes in GS-22a cells, ImageJ analysis", "conditions": "ligand 30nM, means of six cells, representative experiment", "experimental": "as §1, §2"}, "PTH1R‐WT [3]": {"molecular_target": "T3, PTH1R‐WT (Homo sapiens, UniProt Q03431)", "T3 construct": "expressed in transfected cells; plasmid TG-906 made by VectorBuilder", "T3 sequence (Q03431 27-593 E90Y/S91D/E92V/E93P/K95Y/E96A)": "T1 sequence (Q03431 27-593 E90Y/S91D/E92V/E93P/K95Y/E96A/R186H) with H160R", "assay": "Fluorescence microscopy of PTH(1-34)TMR-PTH1R complexes in GS-22a cells, ImageJ analysis", "conditions": "ligand 30nM, 30 min 4°C then 30 min room temperature, means of six cells, representative experiment", "experimental": "as §1, §2"}, "PTH1R‐P132L": {"molecular_target": "T4, PTH1R‐P132L (Homo sapiens, UniProt Q03431, P132L)", "T4 construct": "expressed in transfected cells; plasmid TG-395 in pCDNA1", "T4 sequence (Q03431 27-593 E90Y/S91D/E92V/E93P/K95Y/E96A/P132L)": "T1 sequence (Q03431 27-593 E90Y/S91D/E92V/E93P/K95Y/E96A/R186H) with P106L, H160R", "assay": "β-arrestin2-YFP recruitment by fluorescence microscopy in GBR-24 cells, ImageJ analysis", "conditions": "ligand 30nM", "experimental": "(§3) Recruitment of β‐arrestin was assessed in GBR‐24 cells (HEK293/GloSensor (GS‐22A)‐derived cells stably expressing β‐arrestin2^YFP)^( [30] ^) that were transiently transfected to express PTH1R‐WT or a mutant derivative.\nas §2"}, "PTH1R‐R186H [4]": {"molecular_target": "T1, PTH1R‐R186H", "assay": "β-arrestin2-YFP recruitment by fluorescence microscopy in GBR-24 cells, ImageJ analysis", "conditions": "ligand 30nM", "experimental": "as §3, §2"}, "PTH1R‐V204E [5]": {"molecular_target": "T2, PTH1R‐V204E", "assay": "β-arrestin2-YFP recruitment by fluorescence microscopy in GBR-24 cells, ImageJ analysis", "conditions": "ligand 30nM", "experimental": "as §3, §2"}, "PTH1R‐WT [6]": {"molecular_target": "T3, PTH1R‐WT", "assay": "β-arrestin2-YFP recruitment by fluorescence microscopy in GBR-24 cells, ImageJ analysis", "conditions": "ligand 30nM", "experimental": "as §3, §2"}, "[7]": {"conditions": "GBR24 cells, means of six cells"}, "[8]": {"conditions": "GBR-24 cells, 30 min, a representative cell"}}, "note": "Residue numbers refer to the chain shown, from its start."}
{"substance": "tetramethylrhodamine (TMR)‐^ n L ^8,21‐rat‐PTH(1‐34) [PTH(1‐34)^TMR]", "values": [{"measurement": "Particles /Total Area", "setting": "PTH1R‐R186H [1]", "value": "1162 ± 95"}, {"measurement": "Particles /Total Area", "setting": "PTH1R‐V204E [2]", "value": "826 ± 78"}, {"measurement": "Particles /Total Area", "setting": "PTH1R‐WT [3]", "value": "1011 ± 57"}, {"measurement": "Particles/Total Area (βArrestinYFP-ligand complexes)", "setting": "PTH1R‐P132L; [7]", "value": "223 ± 66"}, {"measurement": "ligand binding and β-arrestin2YFP recruitment (microscopy signal)", "setting": "PTH1R‐P132L; GBR-24 cells, 30 min (Fig. 4A)", "value": "Only faint signal"}, {"measurement": "Particles/Total Area (βArrestinYFP-ligand complexes)", "setting": "PTH1R‐R186H [4]; [7]", "value": "603 ± 81"}, {"measurement": "Pearson correlation coefficient (R), colocalization of ligand with β-arrestin2YFP", "setting": "PTH1R‐R186H [4]; [8]", "value": 0.86}, {"measurement": "Particles/Total Area (βArrestinYFP-ligand complexes)", "setting": "PTH1R‐V204E [5]; [7]", "value": "496 ± 44"}, {"measurement": "Pearson correlation coefficient (R), colocalization of ligand with β-arrestin2YFP", "setting": "PTH1R‐V204E [5]; [8]", "value": 0.69}, {"measurement": "Particles/Total Area (βArrestinYFP-ligand complexes)", "setting": "PTH1R‐WT [6]; GBR24 cells, 30 min room temperature, means of six cells, representative experiment", "value": "704 ± 22"}, {"measurement": "Pearson correlation coefficient (R), colocalization of ligand with β-arrestin2YFP", "setting": "PTH1R‐WT [6]; [8]", "value": 0.97}]}
